Activity calls are given as the source filed them.
Key:
[1] = target: Aurora kinase C (Homo sapiens) (UniProt Q9UQB9); assay: Inhibition of human AuroraC at 1 uM using bio-4xCHKT as substrate in presence of 33P-ATP by ProQinase assay
[2] = target: Aurora kinase B (Homo sapiens) (UniProt Q96GD4); assay: Inhibition of human AuroraB at 1 uM using bio-4xCHKT as substrate in presence of 33P-ATP by ProQinase assay
[3] = target: Calcium/calmodulin-dependent protein kinase type 1D (Homo sapiens) (UniProt Q8IU85); assay: Inhibition of human CAMK1D at 1 uM using RBER-CHKtide as substrate in presence of 33P-ATP by ProQinase assay
[4] = target: RAC-gamma serine/threonine-protein kinase (Homo sapiens) (UniProt Q9Y243); assay: Inhibition of human AKT3 at 1 uM using RBER-GSK3 as substrate in presence of 33P-ATP by ProQinase assay
[5] = target: Calcium/calmodulin-dependent protein kinase type II subunit delta (Homo sapiens) (UniProt Q13557); assay: Inhibition of human CAMK2D at 1 uM using RBER-CHKtide as substrate in presence of 33P-ATP by ProQinase assay
[6] = target: Ephrin type-B receptor 1 (Homo sapiens) (UniProt P54762); assay: Inhibition of human EPHB1 at 1 uM using polyEY as substrate in presence of 33P-ATP by ProQinase assay
[7] = target: Proto-oncogene tyrosine-protein kinase receptor Ret (Homo sapiens) (UniProt P07949); assay: Inhibition of human RET at 1 uM using polyEY as substrate in presence of 33P-ATP by ProQinase assay
[8] = target: G protein-coupled receptor kinase 4 (Homo sapiens) (UniProt P32298); assay: Inhibition of human GRK4 at 1 uM using casein as substrate in presence of 33P-ATP by ProQinase assay
[9] = target: Serine/threonine-protein kinase SIK2 (Homo sapiens) (UniProt Q9H0K1); assay: Inhibition of recombinant human N-terminal GST and HA-tagged SIK2 (2 to 926 residues) expressed in baculovirus infected Sf21 cells assessed as remaining activity at 1 uM using ALNRTSSDSALHRRR as substrate incubated for 30 mins in presence of [gamma-33P]ATP by filter binding method relative to control
[10] = target: Mitogen-activated protein kinase kinase kinase kinase 4 (Homo sapiens) (UniProt O95819); assay: Inhibition of human MAP4K4 at 1 uM using casein as substrate in presence of 33P-ATP by ProQinase assay
[11] = target: Serine/threonine-protein kinase PAK 6 (Homo sapiens) (UniProt Q9NQU5); assay: Inhibition of human PAK6 at 1 uM using bio-4xCHKT as substrate in presence of 33P-ATP by ProQinase assay
[12] = target: Casein kinase I isoform delta (Homo sapiens) (UniProt P48730); assay: Inhibition of human CK1delta at 1 uM using casein as substrate in presence of 33P-ATP by ProQinase assay
[13] = target: Phosphorylase b kinase gamma catalytic chain, liver/testis isoform (Homo sapiens) (UniProt P15735); assay: Inhibition of human PHKG2 at 1 uM using RBER-CHKtide as substrate in presence of 33P-ATP by ProQinase assay
[14] = target: Leukocyte tyrosine kinase receptor (Homo sapiens) (UniProt P29376); assay: Inhibition of human LTK at 1 uM using polyEY as substrate in presence of 33P-ATP by ProQinase assay
[15] = target: Serine/threonine-protein kinase 16 (Homo sapiens) (UniProt O75716); assay: Inhibition of human TSF1 at 1 uM using casein as substrate in presence of 33P-ATP by ProQinase assay
[16] = target: Mitogen-activated protein kinase kinase kinase kinase 2 (Homo sapiens) (UniProt Q12851); assay: Inhibition of recombinant human N-terminal His6-tagged GCK (2 to 812 residues) expressed in baculovirus infected Sf21 cells assessed as remaining activity at 1 uM using MBP as substrate incubated for 30 mins in presence of [gamma-33P]ATP by filter binding method relative to control
[17] = target: Calcium/calmodulin-dependent protein kinase kinase 1 (Homo sapiens) (UniProt Q8N5S9); assay: Inhibition of human CAMKK1 at 1 uM using RB-CTF as substrate in presence of 33P-ATP by ProQinase assay
[18] = target: Ephrin type-B receptor 2 (Homo sapiens) (UniProt P29323); assay: Inhibition of human EPHB2 at 1 uM using poly(Ala,Glu,Lys,Tyr) as substrate in presence of 33P-ATP by ProQinase assay
[19] = target: Ephrin type-A receptor 2 (Homo sapiens) (UniProt P29317); assay: Inhibition of recombinant human N-terminal GST-tagged EPHA2 (591 to 976 residues) expressed in Escherichia coli assessed as remaining activity at 1 uM using Poly (Glu,Tyr) as substrate incubated for 30 mins in presence of [gamma-33P]ATP by filter binding method relative to control
[20] = target: Serine/threonine-protein kinase MARK2 (Homo sapiens) (UniProt Q7KZI7); assay: Inhibition of human MARK2 at 1 uM using RBER-CHKtide as substrate in presence of 33P-ATP by ProQinase assay
[21] = target: Ribosomal protein S6 kinase alpha-3 (Homo sapiens) (UniProt P51812); assay: Inhibition of recombinant human N-terminal His6-tagged RSK2 (2 to 740 residues) expressed in baculovirus infected Sf21 cells assessed as remaining activity at 1 uM using KKLNRTLSVA as substrate incubated for 30 mins in presence of [gamma-33P]ATP by filter binding method relative to control
[22] = target: MAP/microtubule affinity-regulating kinase 4 (Homo sapiens) (UniProt Q96L34); assay: Inhibition of human MARK4 at 1 uM using RBER-CHKtide as substrate in presence of 33P-ATP by ProQinase assay
[23] = target: Serine/threonine-protein kinase 26 (Homo sapiens) (UniProt Q9P289); assay: Inhibition of human MST4 at 1 uM using RB-CTF as substrate in presence of 33P-ATP by ProQinase assay
[24] = target: Serine/threonine-protein kinase D1 (Homo sapiens) (UniProt Q15139); assay: Inhibition of human PKCmu at 1 uM using RBER-CHKtide as substrate in presence of 33P-ATP by ProQinase assay
[25] = target: Tyrosine-protein kinase JAK3 (Homo sapiens) (UniProt P52333); assay: Inhibition of human JAK3 at 1 uM using poly(Ala,Glu,Lys,Tyr) as substrate in presence of 33P-ATP by ProQinase assay
[26] = target: Tyrosine-protein kinase BTK (Homo sapiens) (UniProt Q06187); assay: Inhibition of human BTK at 1 uM using polyEY as substrate in presence of 33P-ATP by ProQinase assay
[27] = target: Mitogen-activated protein kinase kinase kinase 11 (Homo sapiens) (UniProt Q16584); assay: Inhibition of recombinant human N-terminal GST-tagged MLK3 (96 to 386 residues) expressed in baculovirus infected Sf21 cells assessed as remaining activity at 1 uM using MBP as substrate incubated for 30 mins in presence of [gamma-33P]ATP by filter binding method relative to control

Chain of Ephrin type-B receptor 2 (Homo sapiens) (P29323 whole entry, the tested form may be a part): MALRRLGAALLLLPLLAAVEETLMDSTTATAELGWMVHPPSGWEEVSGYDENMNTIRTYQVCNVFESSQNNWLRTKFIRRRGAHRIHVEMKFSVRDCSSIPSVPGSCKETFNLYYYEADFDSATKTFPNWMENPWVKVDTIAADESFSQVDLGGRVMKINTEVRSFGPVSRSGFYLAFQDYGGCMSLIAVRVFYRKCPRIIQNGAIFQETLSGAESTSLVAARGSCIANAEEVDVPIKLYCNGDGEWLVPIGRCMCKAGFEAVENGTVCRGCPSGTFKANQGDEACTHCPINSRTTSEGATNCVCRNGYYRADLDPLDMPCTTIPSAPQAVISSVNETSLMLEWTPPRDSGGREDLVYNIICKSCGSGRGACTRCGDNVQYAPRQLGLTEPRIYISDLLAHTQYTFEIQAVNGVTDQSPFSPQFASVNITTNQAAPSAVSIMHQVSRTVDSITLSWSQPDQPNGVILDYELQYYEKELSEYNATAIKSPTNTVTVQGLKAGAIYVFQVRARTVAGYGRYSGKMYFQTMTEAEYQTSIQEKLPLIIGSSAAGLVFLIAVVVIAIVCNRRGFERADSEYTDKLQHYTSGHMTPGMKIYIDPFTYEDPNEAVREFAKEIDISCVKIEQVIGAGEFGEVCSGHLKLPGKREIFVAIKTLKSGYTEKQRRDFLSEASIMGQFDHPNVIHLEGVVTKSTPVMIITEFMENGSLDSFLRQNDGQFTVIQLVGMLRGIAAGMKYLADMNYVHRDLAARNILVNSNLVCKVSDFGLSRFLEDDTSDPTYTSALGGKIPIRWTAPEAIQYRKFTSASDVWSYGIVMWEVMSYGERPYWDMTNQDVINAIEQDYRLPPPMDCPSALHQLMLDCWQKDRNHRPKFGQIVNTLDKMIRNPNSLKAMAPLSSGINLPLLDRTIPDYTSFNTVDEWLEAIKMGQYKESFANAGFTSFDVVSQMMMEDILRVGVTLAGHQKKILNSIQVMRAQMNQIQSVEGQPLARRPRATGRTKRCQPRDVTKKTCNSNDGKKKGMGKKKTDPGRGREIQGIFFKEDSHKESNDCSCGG
Chain of Calcium/calmodulin-dependent protein kinase type II subunit delta (Homo sapiens) (Q13557 whole entry): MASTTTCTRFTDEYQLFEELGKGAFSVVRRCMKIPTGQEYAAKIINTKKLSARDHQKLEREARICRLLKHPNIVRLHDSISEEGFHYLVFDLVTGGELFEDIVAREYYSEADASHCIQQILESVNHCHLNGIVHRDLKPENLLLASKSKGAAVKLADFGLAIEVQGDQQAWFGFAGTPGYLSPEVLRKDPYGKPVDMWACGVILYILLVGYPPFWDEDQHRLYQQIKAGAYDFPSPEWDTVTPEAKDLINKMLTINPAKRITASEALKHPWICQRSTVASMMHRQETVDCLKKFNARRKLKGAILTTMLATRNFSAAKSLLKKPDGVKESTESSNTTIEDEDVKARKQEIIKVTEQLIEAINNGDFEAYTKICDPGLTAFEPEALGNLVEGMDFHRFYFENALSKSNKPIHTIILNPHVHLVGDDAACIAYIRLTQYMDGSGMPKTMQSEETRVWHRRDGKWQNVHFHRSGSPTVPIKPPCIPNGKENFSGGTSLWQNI
Chain of G protein-coupled receptor kinase 4 (Homo sapiens) (P32298 whole entry, looked up, the tested form may be a part): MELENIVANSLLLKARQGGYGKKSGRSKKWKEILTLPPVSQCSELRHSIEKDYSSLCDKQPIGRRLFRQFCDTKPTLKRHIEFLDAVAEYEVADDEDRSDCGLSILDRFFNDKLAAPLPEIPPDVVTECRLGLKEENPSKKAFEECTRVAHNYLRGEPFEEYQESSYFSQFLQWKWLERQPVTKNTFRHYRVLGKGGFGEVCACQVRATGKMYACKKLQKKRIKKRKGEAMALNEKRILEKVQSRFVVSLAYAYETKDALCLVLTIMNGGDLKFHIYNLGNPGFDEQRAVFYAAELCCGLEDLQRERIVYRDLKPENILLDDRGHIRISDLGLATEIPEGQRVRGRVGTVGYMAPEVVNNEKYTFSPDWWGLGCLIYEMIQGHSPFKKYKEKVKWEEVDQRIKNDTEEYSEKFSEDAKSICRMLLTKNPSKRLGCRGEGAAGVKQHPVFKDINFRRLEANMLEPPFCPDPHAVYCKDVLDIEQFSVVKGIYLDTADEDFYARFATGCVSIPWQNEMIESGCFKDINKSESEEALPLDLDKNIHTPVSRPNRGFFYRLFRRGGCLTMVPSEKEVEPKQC
Chain of Ephrin type-A receptor 2 (Homo sapiens) (P29317 whole entry, the tested form may be a part): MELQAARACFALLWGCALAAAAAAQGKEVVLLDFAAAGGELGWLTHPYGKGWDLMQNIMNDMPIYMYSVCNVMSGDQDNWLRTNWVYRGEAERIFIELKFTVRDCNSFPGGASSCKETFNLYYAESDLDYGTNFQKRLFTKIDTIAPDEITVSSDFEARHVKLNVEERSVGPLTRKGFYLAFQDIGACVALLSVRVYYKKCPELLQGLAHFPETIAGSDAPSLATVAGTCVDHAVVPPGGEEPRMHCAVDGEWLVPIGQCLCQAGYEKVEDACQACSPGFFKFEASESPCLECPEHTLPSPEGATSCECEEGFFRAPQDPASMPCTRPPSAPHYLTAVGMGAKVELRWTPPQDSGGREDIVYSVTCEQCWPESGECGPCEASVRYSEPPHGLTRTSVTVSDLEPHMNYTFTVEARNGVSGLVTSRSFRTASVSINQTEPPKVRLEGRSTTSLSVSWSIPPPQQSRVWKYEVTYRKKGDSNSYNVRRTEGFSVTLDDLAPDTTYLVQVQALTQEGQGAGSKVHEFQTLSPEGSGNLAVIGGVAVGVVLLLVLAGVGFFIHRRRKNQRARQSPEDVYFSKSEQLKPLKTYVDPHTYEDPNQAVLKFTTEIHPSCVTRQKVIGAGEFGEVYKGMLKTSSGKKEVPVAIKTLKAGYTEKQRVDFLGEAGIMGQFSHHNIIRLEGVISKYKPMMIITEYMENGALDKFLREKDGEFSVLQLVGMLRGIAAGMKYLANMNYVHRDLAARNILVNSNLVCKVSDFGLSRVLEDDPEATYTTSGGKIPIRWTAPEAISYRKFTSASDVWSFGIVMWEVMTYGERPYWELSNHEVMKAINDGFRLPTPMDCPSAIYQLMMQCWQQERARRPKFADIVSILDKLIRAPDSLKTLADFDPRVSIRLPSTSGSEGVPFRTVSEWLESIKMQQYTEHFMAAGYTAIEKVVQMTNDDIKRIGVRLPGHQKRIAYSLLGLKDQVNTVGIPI
Chain of Ribosomal protein S6 kinase alpha-3 (Homo sapiens) (P51812 whole entry, the tested form may be a part): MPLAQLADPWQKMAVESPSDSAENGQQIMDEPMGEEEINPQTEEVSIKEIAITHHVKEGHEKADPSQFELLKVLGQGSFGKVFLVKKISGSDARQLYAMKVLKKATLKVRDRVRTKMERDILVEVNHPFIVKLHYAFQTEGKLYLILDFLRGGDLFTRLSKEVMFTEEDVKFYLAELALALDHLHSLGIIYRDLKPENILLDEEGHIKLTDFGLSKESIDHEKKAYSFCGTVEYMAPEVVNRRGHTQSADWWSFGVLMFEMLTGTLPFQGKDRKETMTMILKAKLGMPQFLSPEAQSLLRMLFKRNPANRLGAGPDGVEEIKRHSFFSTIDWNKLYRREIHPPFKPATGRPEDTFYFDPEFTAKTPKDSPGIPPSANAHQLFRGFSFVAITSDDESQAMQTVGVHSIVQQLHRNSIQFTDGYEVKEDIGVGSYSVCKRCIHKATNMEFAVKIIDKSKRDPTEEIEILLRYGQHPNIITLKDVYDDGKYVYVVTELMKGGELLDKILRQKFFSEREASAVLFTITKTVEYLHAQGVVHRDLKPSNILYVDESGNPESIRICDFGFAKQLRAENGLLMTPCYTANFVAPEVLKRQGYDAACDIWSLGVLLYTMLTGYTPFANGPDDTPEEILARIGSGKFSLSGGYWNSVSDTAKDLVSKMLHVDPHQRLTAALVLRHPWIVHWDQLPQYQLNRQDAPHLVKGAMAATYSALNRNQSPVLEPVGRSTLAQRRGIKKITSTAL
Chain of Casein kinase I isoform delta (Homo sapiens) (P48730 whole entry, looked up, canonical isoform): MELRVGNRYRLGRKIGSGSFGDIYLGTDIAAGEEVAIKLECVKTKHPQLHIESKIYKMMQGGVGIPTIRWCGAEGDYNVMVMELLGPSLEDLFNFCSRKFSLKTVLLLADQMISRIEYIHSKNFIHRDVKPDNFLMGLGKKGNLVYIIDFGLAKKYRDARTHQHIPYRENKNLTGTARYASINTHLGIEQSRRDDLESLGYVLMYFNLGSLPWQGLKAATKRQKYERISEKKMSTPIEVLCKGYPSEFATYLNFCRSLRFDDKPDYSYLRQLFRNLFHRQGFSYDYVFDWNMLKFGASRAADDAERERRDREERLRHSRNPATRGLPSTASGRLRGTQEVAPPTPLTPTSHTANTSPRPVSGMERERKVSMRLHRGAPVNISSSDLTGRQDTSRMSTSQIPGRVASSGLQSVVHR
Chain of Serine/threonine-protein kinase 16 (Homo sapiens) (O75716 whole entry, the tested form may be a part): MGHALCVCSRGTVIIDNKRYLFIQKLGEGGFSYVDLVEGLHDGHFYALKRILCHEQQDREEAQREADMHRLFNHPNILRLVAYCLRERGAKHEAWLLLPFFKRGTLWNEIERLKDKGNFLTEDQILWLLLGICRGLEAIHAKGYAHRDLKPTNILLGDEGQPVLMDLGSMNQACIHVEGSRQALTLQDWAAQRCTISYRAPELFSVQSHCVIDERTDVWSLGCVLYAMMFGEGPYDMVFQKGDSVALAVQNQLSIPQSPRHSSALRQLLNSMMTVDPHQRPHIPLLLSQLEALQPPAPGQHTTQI
Chain of Aurora kinase B (Homo sapiens) (Q96GD4 whole entry): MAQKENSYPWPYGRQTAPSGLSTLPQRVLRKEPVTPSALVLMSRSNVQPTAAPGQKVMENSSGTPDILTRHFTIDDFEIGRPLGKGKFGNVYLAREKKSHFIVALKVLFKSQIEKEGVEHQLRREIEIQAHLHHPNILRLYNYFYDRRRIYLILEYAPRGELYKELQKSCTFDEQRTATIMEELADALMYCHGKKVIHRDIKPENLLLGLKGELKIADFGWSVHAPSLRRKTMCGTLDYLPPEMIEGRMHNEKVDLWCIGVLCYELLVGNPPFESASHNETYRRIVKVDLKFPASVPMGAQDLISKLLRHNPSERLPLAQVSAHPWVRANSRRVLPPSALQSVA

CC(C)(O)CNc1ncc(-c2ccnc(Nc3ccnc(Cl)c3)n2)c(CC2CC2)n1
inactive: inhibition [1] | inhibition [2] | inhibition [3] | inhibition [4] | inhibition [5] | inhibition [6] | inhibition [7] | inhibition [8] | inhibition [10] | inhibition [11] | inhibition [12] | inhibition [13] | inhibition [14] | inhibition [15] | inhibition [17] | inhibition [18] | inhibition [20] | inhibition [22] | inhibition [23] | inhibition [24] | inhibition [25] | inhibition [26]
103%: Activity [21]
101%: Activity [19]
129%: Activity [27]
104%: Activity [16]
106%: Activity [9]
